In brackets after ≈: the same amount, converted by molar mass. Read-outs that look alike come from different tables or passages of the source.
Legend:
[1] = tested on: Acinetobacter baumannii ATCC 17978; test: MIC against the in vivo test strain; type: cell-based; details: A. baumannii ATCC 17978; for MIC: Acinetobacter baumannii, ATCC17978
Procedure: (§1) The antibacterial activity of FabI inhibitors against select Gram-negative and Gram-positive bacterial species including susceptible and multi-drug resistant A. baumannii, E. coli, K. pneumoniae and S. aureus was tested using the broth microdilution Minimal Inhibitory Concentration (MIC) assay following CLSI guidelines for insoluble compounds. Test articles were serially diluted 2-fold in 100% dimethyl sulfoxide (DMSO) and then diluted 100-fold into cation adjusted Mueller-Hinton broth (CA-MHB) to achieve a 10-point test concentration range in 1% DMSO. Final compound concentrations were 0.016-8 μg/ml for S. aureus or 0.06-32 μg/ml for the Gram-negative species. MIC test plates were then prepared by transferring 100 μl of the final assay medium (test article in CA-MHB, 1% DMSO) into the appropriate wells of a sterile, low binding 96-well polystyrene plate. Direct colony suspension inoculums of the test strains were freshly prepared per CLSI guidelines, and the appropriate test wells were inoculated to achieve a final bacterial cell density of 5×10^5 CFU/ml. Growth control (no test article) and negative control (no bacterial inoculum) wells were also included. Exposure to light was minimized during all stages of assay preparation. […] Bacterial growth was then determined by measuring the optical density at 600 nm (OD600) using a SpectraMax Plus plate-reader spectrophotometer.
(§2) On day 0, animals were inoculated intramuscularly (0.1 ml/thigh) with a 1.67×10^4 inoculum count of Acinetobacter baumannii ATCC 17978. Vehicle control (40% Captisol), positive control (tigecycline) or test substances were then administered 2 hr post infection by the subcutaneous (SC) route of administration. Each dosing group consisted of 5 female mice. The MICs of the compounds against the test strain were 8 μg/ml, 2 μg/ml and […] for compound 201, compound 71 and compound 200, respectively. At 26 or 74 hours after inoculation (24 or 72 hr after treatment initiation), animals were euthanized with CO2 asphyxiation and the thigh tissue harvested from each of the test animals. The tissues were homogenized in 3 mL of PBS, pH 7.4 with a homogenizer. Homogenates, 0.1 mL, were used for serial 10-fold dilutions and plated onto NB agar for colony counts. Efficacy is calculated as the change in log CFU/g thigh vs. the time 0 (treatment initiation) control.
[…]

[2] = tested on: Acinetobacter baumannii ATCC 17978; test: Mouse thigh infection model; type: in vivo, BALB/c mice; details: for Mean Change log CFU/g thigh 72 hr / Mean Change log CFU/g thigh 24 hr: vs. time 0 control; for Mean Log CFU/g thigh 72 hr: 72 hr treatment; for Mean Log CFU/g thigh 24 hr: 24 hr treatment; for efficacy in words, thigh model summary: 24 hr and 72 hr treatment
Procedure: (§3) Groups of 5 female specific-pathogen-free BALB/c mice weighing 18±2 g were used. In the 24 hr model (bacterial counts determined 24 hr after treatment start), mice were rendered neutropenic with cyclophosphamide intraperitoneal (IP) administration conducted at Days −4 (150 mg/kg), and day −1 (100 mg/kg). In the 72 hr model (bacterial counts determined 72 hr after treatment start), animals were rendered persistently neutropenic for the duration of the infection period with cyclophosphamide intraperitoneal (IP) administration conducted at Days −4 (150 mg/kg), −1 (100 mg/kg) and +1 (100 mg/kg). Persistent neutropenia is required to prevent pathogen clearance from thigh tissue in the 74 hr model. Nutritional supplementation (diet gel) plus saline SC injections were provided daily to help animals tolerate the cyclophosphamide treatment.
as §2

A. baumannil ATCC 17978 = test: Mouse lung infection model; type: in vivo, BALB/c mice; details: for Mean change log CFU/g lung 24 hr / Mean change log CFU/g lung 72 hr: vs. time 0 control; for Mean Log CFU/g lung 24 hr: 24 hr treatment; for Mean Log CFU/g lung 72 hr: 72 hr treatment
Procedure: as §3, with “lung” for “thigh”
On day 0, animals were anesthetized with etomidate-lipuro emulsion (20 mg/10 mL; 20 mg/kg dose, IV) and then inoculated intranasally with an A. baumannil ATCC 17978 suspension, 1.36×10^5 CFU/mouse, 0.02 mL/mouse. Vehicle control (40% Captisol), positive control (tigecycline) or test substances were then administered 2 hr post infection by the subcutaneous (SC) route of administration. Each dosing group consisted of 5 female mice. The MICs of the compounds against the test strain were 8 μg/ml and 0.5 μg/ml for compound 201 and compound 200, respectively. At 26 or 74 hours after inoculation (24 or 72 hr after treatment initiation), animals were euthanized with CO2 asphyxiation and the lung tissue harvested from each of the test animals. The tissues were homogenized in 1 ml of PBS, pH 7.4 with a homogenizer. Homogenates, 0.1 mL, were used for serial 10-fold dilutions and plated onto MacConkey II agar for colony counts. Efficacy is calculated as the change in log CFU/g […] vs. the time 0 (treatment initiation) control.

[3] = molecular target: FabI enzyme from Acinetobacter baumannii (Acinetobacter baumannii, UniProt D0CAD5); test: Inhibition of FabI enzyme, rate of NADH consumption; type: biochemical
Procedure: Inhibition of FabI enzyme from Acinetobacter baumannii and Escherichia coli was tested by measuring the rate of NADH consumption (Δabsorbance at 340 nm/min) at 30° C. in 96-well plate format using an automated plate reader in the presence or absence of the test compounds. The assay mixture contained 100 mM Tris-HCl, pH 7.25 (A. baumannii) or 7.5 (E. coli), 100 mM ammonium acetate, 0.02% (A. baumannii) or 0.05% (E. coli) Pluronic F-68, 25 μM crotonyl ACP, 50 μM NADH, 25 pM (A. baumannii) or 50 pM (E. coli) recombinant FabI protein, and 7.5% DMSO. Test compounds were added at concentrations ranging from 0.17 to 10,000 nM in a final well volume of 100 μl. This dose-response inhibitory assay was performed using a 10-point, serial dilution series for each test compound. IC50 values for each test compound were assigned from logistical sigmoid curve-fitting of the inhibition dose response curves.

S. aureus ATCC 29213 = test: Broth microdilution MIC assay; type: cell-based; details: Staphylococcus aureus, ATCC29213; CA-MHB, 35° C., 20 hours
Procedure: as §1

[4] = tested on: A. baumannii ATCC BAA1605; test: Broth microdilution MIC assay; type: cell-based; details: Acinetobacter baumannii, ATCCBAA1605; CA-MHB, 35° C., 20 hours
Procedure: as §1

E. coli AG100 = test: Broth microdilution MIC assay; type: cell-based; details: Escherichia coli, CA-MHB, 35° C., 20 hours
Procedure: as §1

K. pneumoniae A6030827 = test: Broth microdilution MIC assay; type: cell-based; details: Klebsiella pneumoniae, CA-MHB, 35° C., 20 hours
Procedure: as §1

[5] = 25 mg/kg q6h SC, total daily dose 100 mg/kg
[6] = 50 mg/kg q6h SC, total daily dose 200 mg/kg
[7] = following both 24 hr and 72 hr treatment, SC

Sequence of FabI enzyme from Acinetobacter baumannii (D0CAD5 entry or part of it): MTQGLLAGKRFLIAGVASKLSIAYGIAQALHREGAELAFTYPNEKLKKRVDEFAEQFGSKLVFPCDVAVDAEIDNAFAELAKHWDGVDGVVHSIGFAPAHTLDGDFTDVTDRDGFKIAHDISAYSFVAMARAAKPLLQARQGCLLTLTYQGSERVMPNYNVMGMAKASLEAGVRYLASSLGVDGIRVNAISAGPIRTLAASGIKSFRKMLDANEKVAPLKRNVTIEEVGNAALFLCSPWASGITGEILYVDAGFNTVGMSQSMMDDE

Row | Compound | MIC [1] [mg/L] | Mean Change log CFU/g thigh 72 hr ([2]; 25 mg/kg q6h SC) [log CFU/g thigh] | Mean Log CFU/g thigh 72 hr [2, 5] [log CFU/g thigh] | Mean Change log CFU/g thigh 24 hr ([2]; 50 mg/kg q6h SC) [log CFU/g thigh] | Mean Change log CFU/g thigh 72 hr ([2]; 50 mg/kg q6h SC) [log CFU/g thigh] | Mean Log CFU/g thigh 24 hr [2, 6] [log CFU/g thigh] | Mean Log CFU/g thigh 72 hr [2, 6] [log CFU/g thigh] | Mean change log CFU/g lung 24 hr (A. baumannil ATCC 17978; 25 mg/kg q6h SC) [log CFU/g lung] | Mean change log CFU/g lung 72 hr (A. baumannil ATCC 17978; 25 mg/kg q6h SC) [log CFU/g lung] | Mean Log CFU/g lung 24 hr (A. baumannil ATCC 17978; [5]) [log CFU/g lung] | Mean Log CFU/g lung 72 hr (A. baumannil ATCC 17978; [5]) [log CFU/g lung] | Mean change log CFU/g lung 24 hr (A. baumannil ATCC 17978; 50 mg/kg q6h SC) [log CFU/g lung] | Mean change log CFU/g lung 72 hr (A. baumannil ATCC 17978; 50 mg/kg q6h SC) [log CFU/g lung] | Mean Log CFU/g lung 24 hr (A. baumannil ATCC 17978; [6]) [log CFU/g lung] | Mean Log CFU/g lung 72 hr (A. baumannil ATCC 17978; [6]) [log CFU/g lung] | MIC (S. aureus ATCC 29213) [mg/L] | MIC [4] [mg/L] | MIC (E. coli AG100) [mg/L] | efficacy in words, thigh model summary ([2]; SC) | other results
1 | Cc1oc2ccccc2c1CN(C)C(=O)/C=C/c1cnc2c(c1)CC[C@H](N)C(=O)N2 [Compound 200, (S,E)-3-(7-amino-8-oxo-6,7,8,9-tetrahydro-5H-pyrido[2,3-b]azepin-3-yl)-N-methyl-N-((2-methylbenzofuran-3-yl)methyl)acrylamide] | 0.5 (≈ 1.24 µM) | −2.27 | 2.58 | −2.53 | −2.14 | 2.31 | 2.71 | −2.44 | −2.21 | 3.86 | 4.09 | −3.50 | −3.39 | 2.80 | 2.91 | ≤ 4 | ≤ 4 | ≤ 4 |  | MIC against the test strain [1]: 0.5 mg/L (≈ 1.24 µM); efficacy (log kill), thigh model [2, 7]: 2.1-2.4 log kill; efficacy (log kill), lung model (A. baumannil ATCC 17978; [7]): 2.5-3.5 log kill; IC50 ([3]; recombinant FabI, 30° C., pH 7.25, read-out: A. baumannii Fabl IC50): < 0.01 µM
2 | Cc1c(CN(C)C(=O)/C=C/c2cnc3c(c2)CC(N)C(=O)N3)oc2ccccc12.Cl (stereo not drawn) [Compound 201, (E)-3-(6-amino-7-oxo-5,6,7,8-tetrahydro-1,8-naphthyridin-3-yl)-N-methyl-N-((3-methylbenzofuran-2-yl)methyl)acrylamide hydrochloride, reference compound] | 8 | 2.24 | 7.09 | 2.26 | 1.86 | 7.11 | 6.70 | 1.02 | 0.21 | 7.32 | 6.51 | 0.26 | −0.35 | 6.56 | 5.95 |  | 16 | 8 | no efficacy | efficacy in words, lung model summary (A. baumannil ATCC 17978; SC, 24 hr and 72 hr treatment): very slight efficacy; IC50 [3]: 0.019 µM
3 | Cc1c(CN(C)C(=O)/C=C/c2cnc3c(c2)CC[C@H](N)C(=O)N3)oc2ccccc12.Cl (single isomer, unassigned) [Compound 71] | 2 | 2.25 | 7.09 | 0.60 | 1.10 | 5.45 | 5.95 |  |  |  |  |  |  |  |  | ≤ 4 | ≤ 4 | ≤ 4 | very slight efficacy | MIC (K. pneumoniae A6030827): ≤ 4 mg/L

Source: patent US12473283B2, “Compounds and their use” (Debiopharm International S.A., priority 2019, dated 2025)
